Patent US8735149B2, “Motor neurons developed from stem cells” (Hadasit Medical Research Services & Development Limited, priority 2008, dated 2014)

Tests used:
Type in all cases: cell-based, human
[1] = test system: hESC-derived neural progenitors with caudal and ventral specification; test: Terminal motor neuron differentiation of plated spheres in the presence of DAPT (HB9, CHAT immunostaining)
Method: (§1) The spheres were then further cultured in the same neurobasal medium supplemented with 2 mM L-glutamine, 50 units/ml penicillin, 50 μg/ml streptomycin, 1% non-essential amino-acids, 1% N2 (all from Invitrogen), 1 μM db-cAMP and 10 ng/ml of BDNF, GDNF and IGF-I (all from Peprotech). This medium was designated as motor neuron medium (MNM). The clusters could be cultured in suspension in this medium for prolonged periods (5 months). At various time points along this period the cells were plated on 10 μg/ml Poly-D-Lysine (Sigma) and 5 μg/ml laminin (Sigma) for terminal differentiation in the presence or absence of the γ-secretase inhibitor [N-(3,5-Difluorophenacetyl)-L-alanyl]-S-phenylglycine t-butyl ester (DAPT; 1 μM, Sigma).
(§2) The following primary antibodies were used: polyclonal rabbit anti Isl1 (1:750, Abeam), mouse anti HB9 (1:50, DSHB), polyclonal goat anti CHAT (1:200, R&D), and goat anti olig2 (1:75, R&D).
(§3) The following secondary antibodies: goat anti-rabbit conjugated to Cy-3 (1:1000, Jackson), goat anti-mouse conjugated to Cy-3 (1:500, Jackson), donkey anti goat conjugated to rhodamin (1:300, Jackson), Texas red or Alexa 488-conjugated goat anti-mouse IgM (1:100, Jackson), goat anti-rabbit IgG (1:100, Molecular Probes), goat anti-mouse IgG (1:100, Molecular Probes) or donkey anti-goat IgG (1:250, Jackson) were used as secondary antibodies, where appropriate.
To further enhance the motor neuron differentiation, caudalization and ventralization were followed by blocking Notch signaling with the γ-secretase inhibitor DAPT. After 2-3 weeks of maturation in MNM, the spheres were plated on laminin and terminally differentiated in the presence of DAPT for 7-10 days.

[2] = test system: hESC-derived neural spheres; test: Olig-2, HB9 and CHAT expression after caudalization, ventralization and maturation in MNM
Method: (§4) Alternatively, the spheres were cultured in the same medium supplemented with 1 μM RA (Sigma) for 1 week. Followed by further culturing the spheres in neurobasal medium (Invitrogen) supplemented with 2 mM L-glutamine (Invitrogen), 50 units/ml penicillin (Invitrogen), 50 μg/ml streptomycin (Invitrogen), 1% non-essential amino-acids (Invitrogen), N2 (Invitrogen), 1 μM db-cAMP (Sigma) and 1 μM RA (Sigma), or 0.5 μM Pur (Merck), or combination of RA and Pur, for 2-3 weeks.
as §1, §2, §3
In a similar set of experiments, after initial early neural induction in the presence of FGF2, the spheres were induced to take a caudal fate by 7 days treatment with RA. […]

[3] = test system: hESC-derived neural precursors; test: RT-PCR of Olig2, Ngn2 and HB9 transcripts after early neural induction and 2-3 weeks treatment
Method: (§5) To develop spheres enriched for neural precursors, hESC colonies were removed intact from the feeders, 6 days after passage, with collagenase IV. They were cultured in low adherent culture dishes (HydroCell) in DMEM/F12 (1:1) basal medium (Invitrogen), supplemented with 2% B27, 2 mM glutamine, 50 units/ml penicillin, 50 μg/ml streptomycin (all from Invitrogen), and 20 ng/ml rh-FGF-2 (Peprotech). In some experiments the medium was also supplemented with noggin 600-700 ng/ml (both from R&D) for 14-16 days.
The medium was further supplemented with 1 μM retinoic acid (“RA”; Sigma) or 0.5 μM purmorphamine (“Pur”; a hedgehog agonist; Merck), or combination of Pur and RA, for 3 weeks.
Total RNA was extracted from free-floating clusters after 2 and 3 weeks of treatment with RA, Pur or both. Total RNA was isolated using TRI-reagent (Sigma) followed by treatment with RNase-free DNase (Ambion). cDNA synthesis was carried out using Moloney murine leukemia virus (M-MLV) reverse transcriptase and random primers, according to the manufacturers' instructions (Promega). To analyze relative expression of different mRNAs, the amount of cDNA was normalized based on the signal from GAPDH mRNA. PCR was carried out using standard protocols with Taq DNA Polymerase (Promega). Amplification conditions were as follows: denaturation at 94° C. for 30 seconds, annealing at 55° C. for 30 seconds, and extension at 72° C. for 45 seconds. The number of cycles varied between 30 and 40, depending on particular mRNA abundance. Primer sequences (forward and reverse 5′-3′) were as shown in Table 1 (sequence identification number (SEQ ID NO.) according to the Sequence Listing is also provided):
Following this initial induction of early neural differentiation, the role of purmorphamine (Pur) and retinoic acid (RA) in further specification towards a caudal and ventral fate was examined. The neural precursors were further cultured 2-3 weeks with Pur, RA, or the combination of RA & Pur as well as with FGF2 as a control. Caudalization and ventralization were studied by analyzing the expression of Olig-2, Ngn2 and HB9 transcripts (FIGS. 2A, 2B and 2C). […] Without being bound by theory, induction of expression of these transcription factors by RA after 3 weeks (lane 6 in FIGS. 2A and 2C) may be related to RA-mediated induction of endogenous SHH gene expression.

[4] = test system: hESC-derived neural precursors; test: Immunostaining for HB9 after 1 week RA, 3 weeks treatment and 4-6 weeks maturation in MNM; details: RA 1 week, then 3 weeks treatment, then maturation 4-6 weeks in MNM
Method: as §4, §1
The following primary antibodies were used: polyclonal rabbit anti Isl1 (1:750, Abeam), mouse anti HB9 (1:50, DSHB), polyclonal goat anti CHAT (1:200, R&D), and goat anti olig2 (1:75, R&D). […]

[5] = test system: hESC-derived neural precursors; test: Immunostaining for Olig-2 and Isl-1 after early neural induction and 3 weeks treatment; details: treatment for 3 weeks
Method: To develop spheres enriched for neural precursors, hESC colonies were removed intact from the feeders, 6 days after passage, with collagenase IV. They were cultured in low adherent culture dishes (HydroCell) in DMEM/F12 (1:1) basal medium (Invitrogen), supplemented with 2% B27, 2 mM glutamine, 50 units/ml penicillin, 50 μg/ml streptomycin (all from Invitrogen), and 20 ng/ml rh-FGF-2 (Peprotech). In some experiments the medium was also supplemented with noggin 600-700 ng/ml (both from R&D) for 14-16 days. […] The medium was further supplemented with 1 μM retinoic acid (“RA”; Sigma) or 0.5 μM purmorphamine (“Pur”; a hedgehog agonist; Merck), or combination of Pur and RA, for 3 weeks. The following primary antibodies were used: polyclonal rabbit anti Isl1 (1:750, Abeam), mouse anti HB9 (1:50, DSHB), polyclonal goat anti CHAT (1:200, R&D), and goat anti olig2 (1:75, R&D). The following secondary antibodies: goat anti-rabbit conjugated to Cy-3 (1:1000, Jackson), goat anti-mouse conjugated to Cy-3 (1:500, Jackson), donkey anti goat conjugated to rhodamin (1:300, Jackson), Texas red or Alexa 488-conjugated goat anti-mouse IgM (1:100, Jackson), goat anti-rabbit IgG (1:100, Molecular Probes), goat anti-mouse IgG (1:100, Molecular Probes) or donkey anti-goat IgG (1:250, Jackson) were used as secondary antibodies, where appropriate.

[6] = test system: hESC clusters; test: Early neural induction of hESC clusters (PSA-NCAM expression); details: chemically defined medium with FGF2 with or without noggin, two weeks
Method: as §5
To induce the differentiation of hESCs towards motor neurons, hESC clusters were initially cultured in chemically defined medium supplemented with FGF2 with or without noggin for two weeks. At the end of this culture period the clusters acquired round morphology typical of neural spheres.

[7] = DAPT 1 μM for 7-10 days after 2-3 weeks maturation in MNM, plated on laminin
[8] = RA 7 days, Pur with or without RA 2-3 weeks, 4 weeks maturation in MNM, plated on laminin, no DAPT

Compound | increase of percentage of HB9+ cells [1, 7] | percentage of HB9+ cells [1, 7] | neurite outgrowth and branching from CHAT expressing cells ([1]; DAPT during terminal differentiation) | cells within the spheres expressing Olig-2 ([2]; 7 days RA, then Pur in the presence or absence of RA for 2-3 weeks) | cells expressing CHAT [2, 8] | cells expressing HB9 [2, 8] | expression of HB9 transcripts ([3]; after 2 weeks of treatment) | expression of Olig-2 transcripts ([3]; after 2 weeks of treatment) | expression of HB9 transcripts ([3]; after 3 weeks of treatment) | expression of Olig-2 transcripts ([3]; after 3 weeks of treatment) | cells expressing HB9 protein [4] | cells expressing Isl-1 [5] | cells expressing Olig-2 [5] | expression of Ngn2 transcripts ([3]; after 2 weeks of treatment) | expression of Ngn2 transcripts ([3]; after 3 weeks of treatment) | neural precursor cells expressing PSA-NCAM within the clusters [6]
C[C@H](NC(=O)Cc1cc(F)cc(F)c1)C(=O)N[C@H](C(=O)OC(C)(C)C)c1ccccc1 [DAPT, [N-(3,5-Difluorophenacetyl)-L-alanyl]-S-phenylglycine t-butyl ester] | 1.5-2 folds | 40-70 % of total cells | significantly augmented |  |  |  |  |  |  |  |  |  |  |  |  | 
c1ccc2c(Oc3nc(Nc4ccc(N5CCOCC5)cc4)c4ncn(C5CCCCC5)c4n3)cccc2c1 [Pur, purmorphamine] |  |  |  | 23-54 % of the cells | 20-50 % of the cells | 20-50 % of the cells | induced the expression | induced the expression | induced the expression | induced the expression | 66 % of total cells |  |  |  |  | 
FGF2: basic fibroblast growth factor, used for early neural induction and as control treatment |  |  |  |  |  |  | did not induce the expression | did not induce the expression | did not induce the expression | did not induce the expression | not expressed | not expressed | did not induce the expression | did not induce the expression | did not induce the expression | highly enriched
